Literature values as cited in patent US9750812B2, “Lipid based pharmaceutical preparations for oral and topical application; their compositions, methods, and uses thereof” (JINA PHARMACEUTICALS, INC., priority 2008, dated 2017).

solubility in organic solvents (organic solvents such as ethanol and methanol): soluble | solubility in water (water): practically insoluble
SMILES: CC(C)(C)NC(=O)[C@H]1CC[C@H]2[C@@H]3CC[C@H]4NC(=O)C=C[C@]4(C)[C@H]3CC[C@]12C [finasteride, (5α, 17β)-N-(1,1-dimethylethyl)-3-oxo-4-azaandrost-1-ene-17-carboxamide]
